Article PMC7217150, “Synthesis, Modification, and Biological Evaluation of a Library of Novel Water‐Soluble Thiopyridone‐Based Organometallic Complexes and Their Unexpected (Biological) Behavior” (Chemistry (Weinheim an Der Bergstrasse, Germany), 2020)

Tests used:
Type in all cases: cell-based, human
A549 = experiment: MTT cytotoxicity assay, monolayer culture; conditions: Homo sapiens, exposure time 96 h, means ± SDs
From the text: (§1) A549 (non‐small cell lung carcinoma), SW480 and HCT‐116 (both colon carcinoma) were kindly provided by Brigitte Marian, Institute of Cancer Research, Department of Medicine I, Medical University of Vienna, Austria. The cell line CH1/PA‐1 (ovarian teratocarcinoma) was kindly provided by Lloyd R. Kelland (CRC Centre for Cancer Therapeutics, Institute of Cancer Research, Sutton, UK). All cell culture media (including supplements) and reagents were obtained from Sigma–Aldrich, and all plasticware from StarLab, unless indicated otherwise.

CH1/PA‐1 [1] = experiment: MTT cytotoxicity assay, monolayer culture; conditions: Homo sapiens; CH1/PA‐1, MTT assay, exposure time 96 h, means ± SDs
From the text: as §1

SW480 [2] = experiment: MTT cytotoxicity assay, monolayer culture; conditions: Homo sapiens; SW480, MTT assay, exposure time 96 h, means ± SDs
From the text: as §1

CH1/PA‐1 [3] = experiment: Cell cycle distribution, flow cytometry with propidium iodide; conditions: for Cell cycle distribution G1, % / Cell cycle distribution G2/M, % / Cell cycle distribution S, %: 24 h, mean ± SD; for Relative change in cell cycle distribution G1, % / Relative change in cell cycle distribution G2/M, % / Relative change in cell cycle distribution S, %: difference to untreated control
Protocol: (§2) The influence of two ligands, as well as seven complexes on cell cycle distribution was tested in two of the cancer cell lines (SW480, CH1/PA‐1) by means of flow cytometry. The cell cycle distribution (G1, S, G2/M phase in %; Table S37) was investigated upon DNA staining with propidium iodide.
(§3) CH1/PA‐1 and SW480 cells were harvested by trypsinization, 8×10^4 and 1.2×10^5 cells per well were seeded into 12‐well plates, respectively. The cells were allowed to attach and resume proliferation for 24 h after the seeding. […] After continuous exposure for 24 h at 37 °C and under 5 % CO2, the cells were harvested by trypsinization and centrifuged at 300 g for 3 min. The cells were washed with PBS (1 mL) and resuspended in propidium iodine (PI) containing HSF buffer (600 μL; 0.1 % Triton X‐100, 0.1 % sodium citrate, 50 μg mL^−1 PI in PBS). After incubation overnight at 4 °C in the dark, 5×10^3 cells were measured by flow cytometry with a Millipore Guava easyCyte 8HT instrument (Luminex, USA). Data were evaluated by means of FlowJo software (Tree Star) using Watson Pragmatic algorithms.60 The fitting of the curve was chosen to keep the root mean square error between 1.0 and 2.0, alongside with good fitting visual model.

SW480 [4] = experiment: as above; conditions: for Cell cycle distribution G1, % / Cell cycle distribution G2/M, % / Cell cycle distribution S, %: 24 h, mean ± SD; for Relative change in cell cycle distribution G1, % / Relative change in cell cycle distribution G2/M, % / Relative change in cell cycle distribution S, %: difference to untreated control
Protocol: as §2, §3

Cc1c(O)c(=S)ccn1C [Compound 2 a, 3‐hydroxy‐1,2‐dimethylpyridine‐4(1H)‐thione]
IC50 (A549): 66 ± 6 µM
IC50 (CH1/PA‐1 [1]): 15 ± 1 µM
IC50 (SW480 [2]): 3.2 ± 0.3 µM
Cell cycle distribution G1, % (CH1/PA‐1 [3]; CH1/PA-1, 5 µM): 33 ± 4%
Cell cycle distribution G2/M, % (CH1/PA‐1 [3]; CH1/PA-1, 5 µM): 27 ± 5%
Cell cycle distribution S, % (CH1/PA‐1 [3]; CH1/PA-1, 5 µM): 40 ± 3%
Relative change in cell cycle distribution G1, % (CH1/PA‐1 [3]; CH1/PA-1, 5 µM): -7%
Relative change in cell cycle distribution G2/M, % (CH1/PA‐1 [3]; CH1/PA-1, 5 µM): 3%
Relative change in cell cycle distribution S, % (CH1/PA‐1 [3]; CH1/PA-1, 5 µM): 4%
Cell cycle distribution G1, % (CH1/PA‐1 [3]; CH1/PA-1, 10 µM): 33 ± 4%
Cell cycle distribution G2/M, % (CH1/PA‐1 [3]; CH1/PA-1, 10 µM): 26 ± 6%
Cell cycle distribution S, % (CH1/PA‐1 [3]; CH1/PA-1, 10 µM): 41 ± 8%
Relative change in cell cycle distribution G1, % (CH1/PA‐1 [3]; CH1/PA-1, 10 µM): -7%
Relative change in cell cycle distribution G2/M, % (CH1/PA‐1 [3]; CH1/PA-1, 10 µM): 2%
Relative change in cell cycle distribution S, % (CH1/PA‐1 [3]; CH1/PA-1, 10 µM): 5%
Cell cycle distribution G1, % (CH1/PA‐1 [3]; CH1/PA-1, 20 µM): 35 ± 3%
Cell cycle distribution G2/M, % (CH1/PA‐1 [3]; CH1/PA-1, 20 µM): 28 ± 4%
Cell cycle distribution S, % (CH1/PA‐1 [3]; CH1/PA-1, 20 µM): 37 ± 9%
Relative change in cell cycle distribution G1, % (CH1/PA‐1 [3]; CH1/PA-1, 20 µM): -5%
Relative change in cell cycle distribution G2/M, % (CH1/PA‐1 [3]; CH1/PA-1, 20 µM): 4%
Relative change in cell cycle distribution S, % (CH1/PA‐1 [3]; CH1/PA-1, 20 µM): 1%
Cell cycle distribution G1, % (SW480 [4]; SW480, 5 µM): 45 ± 1%
Cell cycle distribution G2/M, % (SW480 [4]; SW480, 5 µM): 23 ± 0%
Cell cycle distribution S, % (SW480 [4]; SW480, 5 µM): 32 ± 2%
Relative change in cell cycle distribution G1, % (SW480 [4]; SW480, 5 µM): -3%
Relative change in cell cycle distribution G2/M, % (SW480 [4]; SW480, 5 µM): 4%
Relative change in cell cycle distribution S, % (SW480 [4]; SW480, 5 µM): -1%
Cell cycle distribution G1, % (SW480 [4]; SW480, 10 µM): 41 ± 1%
Cell cycle distribution G2/M, % (SW480 [4]; SW480, 10 µM): 24 ± 1%
Cell cycle distribution S, % (SW480 [4]; SW480, 10 µM): 35 ± 2%
Relative change in cell cycle distribution G1, % (SW480 [4]; SW480, 10 µM): -7%
Relative change in cell cycle distribution G2/M, % (SW480 [4]; SW480, 10 µM): 5%
Relative change in cell cycle distribution S, % (SW480 [4]; SW480, 10 µM): 2%
Cell cycle distribution G1, % (SW480 [4]; SW480, 20 µM): 44 ± 3%
Cell cycle distribution G2/M, % (SW480 [4]; SW480, 20 µM): 22 ± 2%
Cell cycle distribution S, % (SW480 [4]; SW480, 20 µM): 33 ± 2%
Relative change in cell cycle distribution G1, % (SW480 [4]; SW480, 20 µM): -4%
Relative change in cell cycle distribution G2/M, % (SW480 [4]; SW480, 20 µM): 3%
Relative change in cell cycle distribution S, % (SW480 [4]; SW480, 20 µM): 0%
